Literature values as cited in patent US20060160700A1, “Nadh-dependent cytochrome b5 reductase as target for herbicides” (Basf Aktiengesellschaft, priority 2002, published 2006).

Columns and labels:
[1] = test system: NADH-dependent cytochrome b5 reductase from various organisms; settings: enzyme from various organisms; Golf et al. 1985, Tamura et al. 1983
[2] = target: T1, NADH-dependent cytochrome b5 reductase from rat liver microsomes (Rattus norvegicus, UniProt P20070); settings: at a concentration of 0.5 mM, Golf et al. 1985
T1 construct: host or cells: rat liver microsomes
T1 sequence (P20070 1-301): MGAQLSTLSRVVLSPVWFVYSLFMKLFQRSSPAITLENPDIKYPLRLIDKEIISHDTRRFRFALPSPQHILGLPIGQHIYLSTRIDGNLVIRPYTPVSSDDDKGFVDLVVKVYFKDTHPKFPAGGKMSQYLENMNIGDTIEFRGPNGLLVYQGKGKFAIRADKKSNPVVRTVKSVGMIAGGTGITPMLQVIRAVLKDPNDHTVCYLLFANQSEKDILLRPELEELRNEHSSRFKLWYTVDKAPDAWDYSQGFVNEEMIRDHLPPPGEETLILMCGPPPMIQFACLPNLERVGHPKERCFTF

[3] = target: T2, NADH-dependent cytochrome b5 reductase from human erthyrocytes (Homo sapiens, UniProt P00387); settings: enzyme from human erythrocytes; Palmieri et al. 1990
T2 construct: host or cells: human erythrocytes
T2 sequence (P00387 24-301 limits assumed): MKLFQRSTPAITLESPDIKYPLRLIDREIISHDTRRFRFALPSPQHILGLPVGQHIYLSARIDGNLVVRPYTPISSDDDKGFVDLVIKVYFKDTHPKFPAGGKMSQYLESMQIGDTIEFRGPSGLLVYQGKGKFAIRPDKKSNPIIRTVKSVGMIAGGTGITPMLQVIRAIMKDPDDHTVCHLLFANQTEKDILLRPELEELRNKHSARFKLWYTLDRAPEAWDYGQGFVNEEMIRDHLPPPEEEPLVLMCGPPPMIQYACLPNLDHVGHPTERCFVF

Row | SMILES | inhibition of NADH-dependent cytochrome b5 reductase (result in words) [1] | further results
1 | CCC1(CCC(C)C)C(=O)NC(=O)NC1=O [amytal] | capable of inhibiting | 
2 | O=C(CC(=O)C(F)(F)F)c1cccs1 [thenoyltrifluoroacetone] |  | inhibition of NADH-dependent cytochrome b5 reductase [2]: 50%
3 | O=P(O)(O)O[C@H]1[C@H](OP(=O)(O)O)[C@@H](OP(=O)(O)O)[C@H](OP(=O)(O)O)[C@@H](OP(=O)(O)O)[C@H]1OP(=O)(O)O [inositol hexaphosphate] |  | concentrations that inhibit the NADH-dependent cytochrome b5 reductase [3]: millimolar range
4 | CCN(CC)CCCC(C)Nc1c2ccc(Cl)cc2nc2ccc(OC)cc12 (stereo not drawn) [mepacrin] | capable of inhibiting | 
5 | CCN1C(=O)C=CC1=O [N-ethylmaleimide] | capable of inhibiting | 
6 | O=c1oc2ccccc2c(O)c1Cc1c(O)c2ccccc2oc1=O [dicoumarol] | capable of inhibiting | 
